Results on 21 molecules are retold here after US10858316B2, “Small molecule inhibitors of the MCL-1 oncoprotein and uses thereof” (University of Maryland, Baltimore, priority 2015, dated 2020).

The first test deals with Mcl-1 (Homo sapiens (Human), UniProt Q07820). In words: Fluorescence polarization competition assay (FPCA), Mcl-1 / FITC-Bak BH3 peptide. The class given is binding. Conditions: FPC assay; read-out: Mcl-1 Ki. An excerpt: The tagged protein was initially purified from the crude cell lysate by immobilized metal affinity chromatography (IMAC) chromatography (GE Healthcare Life Sciences), and after dialysis to remove the imidazole the affinity tag was cleaved using PreScission Protease (GE Healthcare Life Sciences). A Sephacryl S-200 size exclusion column was used as a final purification step before the protein was concentrated with a 10,000 MWCO centifugal filter concentrator (Millipore).
Chain of Mcl-1 (Q07820 172-327): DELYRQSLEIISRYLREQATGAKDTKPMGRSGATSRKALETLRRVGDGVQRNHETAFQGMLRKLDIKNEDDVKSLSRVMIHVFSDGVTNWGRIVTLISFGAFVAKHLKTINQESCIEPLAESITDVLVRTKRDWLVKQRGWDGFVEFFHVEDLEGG
Fluorescence polarization experiments were conducted using a BMG PHERAstar FS multimode microplate reader equipped with two PMTs for simultaneous measurements of the perpendicular and parallel fluorescence emission. The assays were performed in black polypropylene 384-well microplate (Costar) with a final volume of 20 microliter. […] Regression analysis was carried out using Origin (OriginLab, Northampton, Mass.) to fit the data to the Hill equation (1) to determine the initial binding affinity (KD) and the IC50 in the FPCA. For the fluorescence polarization competition titrations, an equation derived by Nikolovska-Coleska et al. was used to calculate the Ki from the IC50 data.
The target molecules were assayed for their abilities to disrupt the Mcl-1-Bak-BH3 PPI in a fluorescence polarization competition (FPC) assay with Mcl-1 and FITC-labeled Bak-BH3 peptide. Further details on the FPC assay can be found in the Supporting Information.
For orientation: In fluorescence polarisation assays a small probe gives low polarisation when free and higher when bound to something large.
In the case of `O=C(O)C1CNc2ccccc2C1` (racemic) [±-6, 1,2,3,4-tetrahydroquinoline-3-carboxylic acid], the Ki (usually the equilibrium dissociation constant of an inhibitor or competing ligand from its target) was > 500 µM.

Still in this test, the particulars now being: FPCA with FITC-Bak; Ki from IC50 by Nikolovska-Coleska equation; read-out: Mcl-1 Ki.
In the case of `NS(=O)(=O)c1cc(C(=O)O)c(O)c2ccccc12` [Compound 3b, 1-Hydroxy-4-sulfamoyl-2-naphthoic Acid], the inhibitory constant (Ki) was determined as 99 µM.

On to `Cc1ccc(S(=O)(=O)N(CC(C)C)c2ccc(C(=O)O)c(O)c2)cc1` [4jc117-2 13af], for which the Ki worked out at 61.2 ± 4.49 µM.

As to `O=C(O)c1ccc2c(c1)CCCN2S(=O)(=O)c1ccc(-c2ccccc2)cc1` [LC-3-002, 1-([1,1′-biphenyl]-4-ylsulfonyl)-1,2,3,4-tetrahydroquinoline-6-carboxylic acid], the Ki stood at 14 µM.

For `Cc1cc(OCCCN2CC(C(=O)O)Cc3ccccc32)cc(C)c1Cl` (racemic) [±-11], the Ki stood at 7.77 ± 1.39 µM.

In the case of `CC(C)CN(c1ccc(-c2nnn[nH]2)cc1)S(=O)(=O)c1ccc(Oc2ccccc2)cc1` [LC-5-068 24], the Ki came out at 3.3 ± 0.26 µM.

`O=C(O)C1CNc2ccccc2C1` (racemic) [±-6, 1,2,3,4-tetrahydroquinoline-3-carboxylic acid]: the Ki was > 500 µM.

Consider `O=C(O)c1cc(S(=O)(=O)N2CCCCC2)c2ccccc2c1O` [Compound 3i, 1-Hydroxy-4-(piperidin-1-ylsulfonyl)-2-naphthoic Acid], for which the inhibition constant Ki amounted to 2.95 ± 0.43 µM.

Regarding `O=C(O)c1ccc(N(Cc2ccccc2)S(=O)(=O)c2ccc(-c3ccccc3)cc2)cc1O` [LC-4-112 13cb], the Ki worked out at 1.71 ± 0.144 µM.

As to `O=C(O)c1cc(S(=O)(=O)Nc2ccc(C(F)(F)F)cc2)c2ccccc2c1O` [Compound 3w, 1-Hydroxy-4-(N-(4-(trifluoromethyl)phenyl)sulfamoyl)-2-naphthoic Acid], the Ki turned out to be 2.5 ± 0.65 µM.

As for `O=C(O)c1ccc2c(c1)CCCN2S(=O)(=O)c1ccc2ccccc2c1` [LC-3-006, 1-(naphthalen-2-ylsulfonyl)-1,2,3,4-tetrahydroquinoline-6-carboxylic acid], the Ki was 22 µM.

For `CC(C)CN(c1ccc(Br)cc1)S(=O)(=O)c1cc(C(=O)O)c(O)c2ccccc12` [Compound 3ca, 4-(N-(4-Bromophenyl)-N-isobutylsulfamoyl)-1-hydroxy-2-naphthoic Acid], the Ki turned out to be 0.566 µM.

As to `O=C(O)c1cc(S(=O)(=O)Nc2ccc(-c3ccccc3)cc2)c2ccccc2c1O` [Compound 3t, 4-(N-([1,1′-Biphenyl]-4-yl)sulfamoyl)-1-hydroxy-2-naphthoic Acid], the Ki came to 1.54 ± 0.46 µM.

Take `CC(=O)OCOC(=O)c1ccc(N(CC(C)C)S(=O)(=O)c2ccc(Oc3ccccc3)cc2)cc1O` [LC-4-141 22]: the Ki is > 500 µM.

The same test, now with this note: fluorescence polarization competition assay; read-out: Ki (μM) Mcl-1.
In the case of `Cc1cc(Oc2ccc(S(=O)(=O)N(CC(C)C)c3ccc(C(=O)O)cc3)cc2)cc(C)c1Cl` [LC-3-035, 4-(4-(4-chloro-3,5-dimethylphenoxy)-N-isobutylphenylsulfonamido)benzoic acid], the Ki turned out to be 0.261 ± 0.558 µM.

The same test, now with this note: read-out: Mcl-1 Ki.
For the molecule `Cc1ccc(S(=O)(=O)N(CC(C)C)c2ccc(C(=O)O)c(O)c2)cc1` [Compound 4jc117-2, 2-hydroxy-4-(N-isobutyl-4-methylphenylsulfonamido)benzoic acid], the Ki turned out to be 302 ± 31.8 µM.

With `O=C(O)C1Cc2ccccc2N(S(=O)(=O)c2ccc(-c3ccccc3)cc2)C1` (racemic) [SF-5-133, (±)-1-([1,1′-biphenyl]-4-ylsulfonyl)-1,2,3,4-tetrahydroquinoline-3-carboxylic acid], the Ki came out at 12 µM.

The same test, now with this note: ΔG=−RTlnKi from experimental Ki.
Consider `O=C(O)c1cc(S(=O)(=O)NCc2cccc(Cl)c2)c2ccccc2c1O` [3e; 5JC71], for which the “Mcl-1 Exp ΔG” value is -7.22 kcal/mol.

Take `O=C(O)c1cc(S(=O)(=O)NCc2ccccc2Cl)c2ccccc2c1O` [3d; 5JC73-2]: the “Mcl-1 Exp ΔG” value is -5.86 kcal/mol.

In the case of `CC(C)c1ccc(NS(=O)(=O)c2cc(C(=O)O)c(O)c3ccccc23)cc1` [3y; 5JC74-2], the “Mcl-1 Exp ΔG” value was -7.38 kcal/mol.

With `O=C(O)c1cc(S(=O)(=O)N2CCN(c3ccccc3)CC2)c2ccccc2c1O` [3j; EW-2-051], the “Mcl-1 Exp ΔG” value is -7.29 kcal/mol.

With `CC(C)CN(c1ccc(Br)cc1)S(=O)(=O)c1cc(C(=O)O)c(O)c2ccccc12` [Compound 3ca, 4-(N-(4-Bromophenyl)-N-isobutylsulfamoyl)-1-hydroxy-2-naphthoic Acid], the “Mcl-1 Exp ΔG” value was -8.52 kcal/mol.

Consider `O=C(O)c1cc(S(=O)(=O)Nc2ccc(Oc3ccccc3)cc2)c2ccccc2c1O` [3bb; SF-5-299], for which the “Mcl-1 Exp ΔG” value was -8.10 kcal/mol.
